Test results published in patent US20260027073A1, “USE OF SMALL-MOLECULE COMPOUND HAVING NAPHTHYLAMINE STRUCTURE” (HANGZHOU PHECDAMED CO., LTD., priority 2023, published 2026).

What was measured:
[1] = tested on: rats with 5/6 nephrectomy; assay: 5/6 nephrectomy-induced renal injury; format: in vivo, SD rats
Description: 5/6 nephrectomy directly leads to a large reduction of renal units, high workload of residual renal units, and combined hypertension (or non-hypertension), and these features are similar to the symptoms of patients with clinical nephrectomy, CKD hypertensive syndrome, and solitary kidney, and like, and the pathological changes are dominated by glomerulosclerosis and tubulo-fibrosis, which is a good model for the study of CKD. The model was prepared as follows, 230-250 g male SD rats were anesthetized with isoflurane gas, and an incision of about 3 cm at 1 cm left and below of the cribriform ridge corner was made, fully exposing the left kidney, and after exposing the kidney in the sham group, the muscle and skin were sutured with sutures, during which there was no ligation and no resection. In the model group, about ⅓ of the cortex of the upper and lower left kidney was cut with ophthalmic surgical scissors, and was pressed with the absorbable gelatin sponge to stop bleeding for 3 min, then the hemostatic clip was released, and whether there is obvious bleeding was observed and the residual kidney was reset, and the muscle and skin were sutured with sutures. After 1 week, the second surgery was performed, and after fully exposing the right kidney, the renal pedicle and the ureter were ligated, and the right kidney was resected. Similarly, in the sham group, after exposing the kidney, the muscle and skin were sutured with sutures, during which there was no ligation and no resection. Penicillin (80 kU/rat) was routinely injected for three days after surgery. […] In the experiment, 10 d after the end of the right nephrectomy surgery, the serum creatinine level of rats increased, which was statistically significant compared to the sham group, and began to be administered in groups.
The experiments were conducted in sham group (exposing both kidneys without resection), Control group (model group, given vehicle treatment by oral gavage), and 15 mg/kg I-1 group (15 mg/kg by oral gavage), respectively, during the experimental period, a drug was administered once a day for a total of 27 days, and the 24-hour urine of the rats in each group was collected by metabolism cages on the 28th day to measure the volume of urine, urine creatinine, and urine protein. At the same time, blood was collected from the heart, and the blood was centrifuged at 12000 g for 10 min at 4° C. after standing at room temperature for 45 min, the supernatant (serum) was taken to measure the creatinine level in the serum, and finally the creatinine clearance was calculated. After euthanasia of rats at endpoint of the test, the kidneys were dissected and removed, in which four kidneys of rats were fixed with 4% paraformaldehyde for 48 h, paraffin-embedded, sectioned, and HE stained as described above.

[2] = tested on: Natural Aging POF model (NA-POF); assay: Natural aging ovarian insufficiency (NA-POF); format: in vivo, C57BL/6J mice; settings: for body weight / ovarian coefficient / ovarian weight: FIG. 71; for serum E2 levels: FIG. 73
Description: The Natural Aging POF model (NA-POF) simulates conditions of progressive ovarian degeneration. Female C57BL/6J mice of 9-10 months of age were purchased and raised to 12 months old, and then the mice were randomly divided into three groups, namely, the control group (Control, 0.5% CMC-Na by oral gavage, n=8), the TJ01-013-treated group (TJ01-013, 30 mg/kg TJ01-013 by oral gavage, n=8), the I-14-1 treatment group (I-14-1, 30 mg/kg I-14-1 by oral gavage, n=8), and were administered daily for 30 days. At the endpoint of the experiment, body weight, ovarian weight, ovarian organ coefficient, serum hormone E2 and FSH levels in mice were measured. The body weight and bilateral ovarian wet weight of each group of mice were weighed with an electronic balance and an analytical balance respectively, and the ovarian organ coefficient of each group of mice was calculated according to the body weight of the mice (g) and the wet weight (mg) of the bilateral ovaries. […] After the experiment reached the end point, orbital blood collection was carried out, and the blood was centrifuged at 12000 g for 10 min after standing still at room temperature for 45 min, and the supernatant (serum) was taken, and the levels of E2 and FSH in serum were detected by ELISA.

Compound | 24 h urine protein content ([1]; 15 mg/kg oral gavage, 27 days, FIG. 6) | blood creatinine level ([1]; 15 mg/kg oral gavage, 27 days, P<0.001, FIG. 5) | body weight ([1]; 15 mg/kg oral gavage, 27 days, vs model group, P<0.05, FIG. 4) | degree of lesions in the renal tissues (HE staining) ([1]; 15 mg/kg, 27 days, FIG. 8) | creatinine clearance rate ([1]; 15 mg/kg, 27 days, vs model control, FIG. 7) | Renal lesions (number of kidneys, n = 4) ([1]; Degree of lesion +++ (severe lesions), 15 mg/kg) | Renal lesions (number of kidneys, n = 4) ([1]; Degree of lesion ± (slight lesions), 15 mg/kg) | Renal lesions (number of kidneys, n = 4) ([1]; Degree of lesion − (no lesions seen), 15 mg/kg) | body weight ([2]; 30 mg/kg daily 30 days) | ovarian coefficient ([2]; 30 mg/kg daily 30 days) | ovarian weight ([2]; 30 mg/kg daily 30 days) | serum FSH level ([2]; 30 mg/kg daily 30 days, FIG. 72) | serum E2 levels ([2]; 30 mg/kg daily 30 days) | improvement of ovarian function, TJ0113 compared with I-14-1 ([2]; both 30 mg/kg) | protection against 5/6 nephrectomy-induced renal injury compared with I-1 group ([1]; UMI-77 vs I-1)
O=C(O)C[S+]([O-])c1cc(NS(=O)(=O)c2ccc(Br)cc2)c2ccccc2c1O (stereo not shown) [I-1] | significantly reduced | significantly reduced | significant increase | improved the degree of lesions | improvement trend | 0 | 0 | 0 | no significant change | significantly elevated | significantly elevated | decreased significantly | increased significantly | more effective | –
O=C(O)C[S+]([O-])c1cc(NS(=O)(=O)c2ccc(C(F)(F)F)cc2)c2ccccc2c1O (stereo not shown) [I-14-1] | – | – | – | – | – | – | – | – | no significant change | rising trend | significantly elevated | – | increased significantly | – | –
O=C(O)CSc1cc(NS(=O)(=O)c2ccc(Br)cc2)c2ccccc2c1O [UMI-77, reference compound] | – | – | – | – | – | – | – | – | – | – | – | – | – | – | less protective
